Experimental data: patent US11440900B2, “Agricultural chemicals” (GLOBACHEM NV, priority 2018, dated 2022)

Legend:
Assay type in all cases: cell-based
Alternaria alternata = experiment: Fungicidal activity screen in amended agar, 96 well plates, Alternaria alternata; conditions: fungal growth vs DMSO control, Medium N agar, 1,000 spores/ml, 20, 2, 0.2 and 0.02 ppm, 18° C., assessed after 3 to 4 days, read-out: Alternaria EC50 ranking
Protocol: (§1) Compounds were screened in 96 well plates with 10 compounds per plate. Each compound was screened using agar amended to 20, 2, 0.2 and 0.02 ppm of the test material. Proline at 50 and 10 ppm and 0.2% DMSO were used respectively as positive and negative controls. Each test concentration and standard were tested twice on a plate.
(§2) Compounds were screened against the following three fungal pathogens—Botrytis cinerea, Alternaria alternata and Zymoseptoria tritici. The agar used in the test varied depending on the pathogen with Medium N used for B. cinerea and A. alternata and 1% potato dextrose agar for Z. tritici. For each pathogen sufficient spores were added to the appropriate agar to give 1,000 spores/ml agar of A. alternata, 5,000 spores/ml agar of B. cinerea and 10,000 spores/ml agar of Z. tritici.
(§3) A ×10 stock solution in 2% DMSO was produced for each dose i.e. 200, 20, 2 and 0.2 ppm, and 10 μl of this added to the appropriate wells on the plate. An equivalent amount of 2% DMSO and Proline stock at 500 and 100 ppm were added for the controls. To each well 90 μl of the appropriate agar spore suspension was added to give the final well concentrations outlined in the first paragraph.
(§4) Plates were incubated at room temperature (18° C.) and assessed after • a) 3 to 4 days A. alternata and B. cinerea • b) 7 days for Z. tritici
(§5) The amount of fungal growth in each well was compared to the DMSO controls and scored according to the following key • 0—no growth (100% control) • 1—growth reduced by 75% compared to DMSO control (25% growth) • 2—growth reduced by 50% compared to DMSO control (50% growth) • 3—growth reduced by 25% compared to DMSO control growth (75% growth) • 4—no reduction in growth compared to DMSO control growth (100% growth)
(§6) Those numbers were then used to give an EC50. The ranking in the table is: • A) EC50<20 ppm, B) EC50≥20ppm

Botrytis cinerea = experiment: Fungicidal activity screen in amended agar, 96 well plates, Botrytis cinerea; conditions: fungal growth vs DMSO control, Medium N agar, 5,000 spores/ml, 20, 2, 0.2 and 0.02 ppm, 18° C., assessed after 3 to 4 days, read-out: Botrytis EC50 ranking
Protocol: as §1, §2, §3, §4, §5, §6

Zymoseptoria tritici = experiment: Fungicidal activity screen in amended agar, 96 well plates, Zymoseptoria tritici; conditions: 168 h, fungal growth vs DMSO control, 1% potato dextrose agar, 10,000 spores/ml, 20, 2, 0.2 and 0.02 ppm, 18° C., assessed after 7 days, read-out: Zymoseptoria EC50 ranking
Protocol: as §1, §2, §3, §4, §5, §6

SMILES | EC50 (Alternaria alternata) | EC50 (Botrytis cinerea) | EC50 (Zymoseptoria tritici)
Cc1ncnc(-n2cnc3cc(F)cc(F)c32)c1-c1ccc(F)cc1Cl [Example 1, 1-(5-(2-Chloro-4-fluorophenyl)-6-methylpyrimidin-4-yl)-5,7-difluoro-1H-benzo[d]imidazole] | < 20 µg/mL | < 20 µg/mL | < 20 µg/mL
COc1ccc(-c2c(C)ncnc2-n2cnc3cc(F)cc(F)c32)c(Cl)c1 [Example 2] | < 20 µg/mL | < 20 µg/mL | < 20 µg/mL
Cc1ncnc(-n2cnc3cc(F)cc(F)c32)c1-c1ccccc1Cl [Example 3] | < 20 µg/mL | < 20 µg/mL | < 20 µg/mL
Cc1ccnc(-n2cnc3cc(F)cc(F)c32)c1-c1ccc(F)cc1Cl [Example 4] | < 20 µg/mL | < 20 µg/mL | < 20 µg/mL
Fc1ccc(-c2c(-n3cnc4cc(F)cc(F)c43)ccnc2Cl)c(Cl)c1 [Example 5] | < 20 µg/mL | < 20 µg/mL | < 20 µg/mL
Cc1cccc(-n2cnc3cc(F)cc(F)c32)c1-c1ccc(F)cc1Cl [Example 6] | < 20 µg/mL | < 20 µg/mL | < 20 µg/mL
COc1cc(F)c(-c2c(C)cccc2-n2cnc3cc(F)cc(F)c32)c(F)c1 [Example 7] | < 20 µg/mL | < 20 µg/mL | < 20 µg/mL
Cc1cccc(-n2cnc3ccccc32)c1-c1ccc(F)cc1Cl [Example 8] | < 20 µg/mL | < 20 µg/mL | < 20 µg/mL
Cc1cccc(-n2cnc3cc(Cl)ccc32)c1-c1ccc(F)cc1Cl [Example 9] | < 20 µg/mL | < 20 µg/mL | < 20 µg/mL
Cc1ccc2c(c1)ncn2-c1cccc(C)c1-c1ccc(F)cc1Cl [Example 10] | < 20 µg/mL | < 20 µg/mL | < 20 µg/mL
COc1ccc(-c2c(C)ncnc2-n2cnc3cc(Cl)cc(F)c32)c(Cl)c1 [Example 11] | < 20 µg/mL | < 20 µg/mL | < 20 µg/mL
Cc1ncnc(-n2cnc3cc(Cl)cc(F)c32)c1-c1ccc(F)cc1Cl [Example 12] | < 20 µg/mL | < 20 µg/mL | < 20 µg/mL
COc1ccc(-c2c(-n3cnc4cc(Cl)cc(F)c43)ccnc2Cl)c(Cl)c1 [Example 13] | < 20 µg/mL | < 20 µg/mL | < 20 µg/mL
Fc1ccc(-c2c(-n3cnc4cc(Cl)cc(F)c43)ccnc2Cl)c(Cl)c1 [Example 14] | < 20 µg/mL | < 20 µg/mL | < 20 µg/mL
C#CCOc1ccc2c(c1)ncn2-c1ccnc(Cl)c1-c1ccc(F)cc1Cl [Example 15] | < 20 µg/mL | < 20 µg/mL | < 20 µg/mL
Cc1ccnc(-n2cnc3cc(Cl)cc(F)c32)c1-c1ccc(F)cc1Cl [Example 16] | < 20 µg/mL | < 20 µg/mL | < 20 µg/mL
C#CCOc1ccc2c(c1)ncn2-c1nccc(C)c1-c1ccc(F)cc1Cl [Example 17] | < 20 µg/mL | < 20 µg/mL | < 20 µg/mL
COc1ccc(-c2c(-n3cnc4cc(Br)cc(F)c43)ccnc2Cl)c(Cl)c1 [Example 18] | < 20 µg/mL | < 20 µg/mL | < 20 µg/mL
COc1cc(F)c(-c2c(C)ncnc2-n2cnc3cc(Cl)cc(F)c32)c(F)c1 [Example 19] | < 20 µg/mL | < 20 µg/mL | < 20 µg/mL
COc1ccc(-c2c(-n3nnc4cc(Cl)cc(F)c43)ccnc2Cl)c(Cl)c1 [Example 20, 5-Chloro-1-(2-chloro-3-(2-chloro-4-methoxyphenyl)pyridin-4-yl)-7-fluoro-1H-benzo[d][1,2,3]triazole] | < 20 µg/mL | < 20 µg/mL | < 20 µg/mL
Cc1ncnc(-n2nnc3cc(Cl)cc(F)c32)c1-c1ccc(F)cc1Cl [Example 21] | ≥ 20 µg/mL | < 20 µg/mL | < 20 µg/mL
COc1ccc(-c2c(C)ncnc2-n2nnc3cc(Cl)cc(F)c32)c(Cl)c1 [Example 22] | ≥ 20 µg/mL | < 20 µg/mL | < 20 µg/mL
Cc1ccnc(-n2nnc3cc(Cl)cc(F)c32)c1-c1ccc(F)cc1Cl [Example 23] | < 20 µg/mL | < 20 µg/mL | < 20 µg/mL
COc1ccc(-c2c(C)ccnc2-n2nnc3cc(Cl)cc(F)c32)c(Cl)c1 [Example 24] | ≥ 20 µg/mL | < 20 µg/mL | < 20 µg/mL
Fc1ccc(-c2c(-n3nnc4cc(Cl)cc(F)c43)ccnc2Cl)c(Cl)c1 [Example 25] | < 20 µg/mL | < 20 µg/mL | < 20 µg/mL
COc1ccc(-c2c(-n3nnc4cc(Br)cc(F)c43)ccnc2Cl)c(Cl)c1 [Example 26] | ≥ 20 µg/mL | < 20 µg/mL | ≥ 20 µg/mL
Fc1ccc(-c2c(-n3cnc4cc(F)ccc43)cnnc2Cl)c(Cl)c1 [Example 27] | ≥ 20 µg/mL | < 20 µg/mL | < 20 µg/mL
